Results on 90 compounds are retold here after a melting point compilation (Tetko et al.; mined from patent text by program, amines drawn as free bases though some values may be those of a salt).

`CCC(COc1ccccc1COc1cccc2ccc(=O)[nH]c12)OC(C)=O` (stereo not given) yielded a melting point of 112 to 114 °C.
The compound `O=C(O)c1cn(-c2ccc(F)cc2)c2cc(N3CCNC(COc4ccccc4)C3)c(F)cc2c1=O` (stereo not given) came in with a melting point of 204 to 207 °C.
On to `CC(Cc1cc2ccccc2[nH]1)(NC(=O)OC1C2CC3CC(C2)CC1C3)C(=O)NCC(N)c1ccccc1` (stereo not given), for which the melting point lay within 96 to 102 °C.
For the compound `O=C(c1cccc(NC(=O)c2ccn3c2CSC3c2cccnc2)c1)c1ccccn1` (stereo not given), the melting point is 165 °C.
`COc1ccc(C2=Cc3ccc(OCc4ccccc4)cc3OC2O)cc1` (stereo not given) showed a melting point of 138 to 139 °C.
`CCc1nc2c(N)nc3ccc(-c4ccccc4)cc3c2n1CC(C)C`: the melting point was in the range of 233 to 235 °C.
`Cc1nn(-c2ccccn2)c2nc3ccccc3c(N)c12` displayed a melting point of 210 to 213 °C.
On to `c1ccc(COCCOc2ccc(OCc3ccccc3)cc2)cc1`, for which the melting point is 71 to 73 °C.
Then `COc1ccc(NC(=O)CBr)c([N+](=O)[O-])c1`, with 94 to 98 °C.
The compound `N#CCCNC(=O)c1cccc(-c2cccc3nn(Cc4cc(F)cc(Cl)c4)cc23)c1` had a melting point of 207 to 208 °C.
On to `CNCC(O)COc1ccc(C#N)cc1` (stereo not given), for which the melting point is 100 to 102 °C.
Take `CCOC(=O)C(=O)Nc1ccc(Cl)c(C(F)(F)F)c1`: the melting point lay in the range of 128 to 130 °C.
`N#Cc1ccc(N2CCC(=O)CC2)c2ccccc12` yielded a melting point of 143 to 144 °C.
`O=C(NC1(O)CC1)c1ccccc1` displayed a melting point of 153 to 155 °C.
The compound `CNc1ccc2sc3ccccc3c(=O)c2c1` came in with a melting point of 172 to 175 °C.
Then `Brc1ccc(C=Cc2ccc(Br)cc2)cc1`, with 213 °C; and `Nc1cc(Oc2ccc(Oc3cc(N)cc(C(F)(F)F)c3)c(C(F)(F)F)c2)cc(C(F)(F)F)c1`, with 82 to 84 °C.
`COc1cc(OC)cc(C(=CC#N)c2ccc(OC)c(F)c2)c1`: the melting point is 91 to 93 °C.
In the case of `Cc1nc(N2CCC(NCCC3CC3)C2=O)sc1C(=O)NCc1ccc(F)cc1` (stereo not given), the melting point was 151 to 152 °C.
Take `CS(=O)(=O)c1ccc(-n2nc(CNC(=O)Nc3ccccc3)cc2-c2ccccc2)cc1`: the melting point was 95.7 to 104 °C.
`CC(C)(C)n1nnc(Cc2ccc(C(=O)O)cc2)n1`: the melting point was 139 to 140 °C.
In turn, `O=C(c1cccnc1)N1N=CCC1c1ccccc1` (stereo not given) gave a melting point of 100 to 102 °C.
In turn, `Cn1c(CC(=O)NO)ccc1C(=O)c1ccc(Cl)cc1` yielded a melting point of 195 °C.
Then `c1cc(-c2ccc(-c3cn([C@H]4CN5CCC4CC5)nn3)s2)ccc1CN1CCCCC1`, with 230 °C; and `Cn1cc(-c2ccccc2)c(=O)c(-c2cccc(Cl)c2)c1`, with 172 °C.
Then `COC(=O)c1ccc2c(c1)S(=O)(=O)c1ccccc1O2`, with 160 °C; and `O=C1c2cccc3cccc(c23)C(=O)N1CCCCN1CCC(O)(c2ccccc2)CC1`, with 138 to 139 °C; and `CC(C)(C)Oc1ccc(CCC(=O)O)cc1`, with 29 to 31 °C.
`CN(c1cccc2cc(-c3ncc(CCc4nn[nH]n4)s3)[nH]c12)S(=O)(=O)c1cccs1` gave a melting point of 211 to 212 °C.
As to `O=Cc1cccn1-c1ncccc1[N+](=O)[O-]`, the melting point was in the range of 122 to 125 °C.
`CCc1ccc2ncc(C(=O)N(O)c3ccccc3)c(O)c2c1`: the melting point came to 218 °C.
`CC(C)Oc1ccccc1C1(OCC(=O)O)C(=O)Nc2ccc(Cl)cc21` (stereo not given) registered a melting point of 225 to 228 °C.
Take `CN1Cc2c(C#N)ncn2-c2ccccc2C1=O`: the melting point was 184 to 186 °C.
In turn, `O=C(O)C1CCCCCCCSC[C@@H](C(=O)O)NC1=O` (stereo not given in full) came in with a melting point of 167 to 170 °C.
The compound `COc1cccc2c1SCC(C(=O)O)C2` (stereo not given) came in with a melting point of 138 to 144 °C.
`CCOC(=O)CCCCc1ccc(OCc2nc(-c3ccccc3)oc2C)cc1` had a melting point of 57 to 58 °C.
In turn, `CCc1ccccc1NC(Nc1ccccc1CC)Nc1ccccc1CC` came in with a melting point of 76 to 78 °C.
`N#CC(C#N)=C1N(CCCN2CCOCC2)CCN1C1CCN(C2CC2)CC1`: the melting point is 104 to 106 °C.
`CCCOc1cc(C)cnc1CCCCNc1ncc(Cc2ccc(C)nc2)c(=O)[nH]1`: the melting point lay in the range of 81 to 85 °C.
`FC(F)C(F)(F)Sc1nc2c3ccccc3c3ccccc3c2[nH]1`: the melting point lay in the range of 230 to 231 °C.
With `C=CCNC(=O)N1CC(Oc2ccccn2)C1`, the melting point lay in the range of 72 to 76 °C.
Then `O=c1[nH]c(=Cc2ccc(OCc3ccccc3)cn2)c(=O)[nH]c1=Cc1ccc(Cl)c(Cl)c1`, with 264 to 265 °C; and `Nc1cccc(-c2ccc(CCN3CCN(c4nccn4-c4ccccc4)CC3)cc2)n1`, with 140 to 142 °C.
`COc1nc(Br)cnc1NS(=O)(=O)c1cccc2c(NC(=O)OCc3ccccc3)cccc12`: the melting point was in the range of 226 to 228 °C.
Then `N#CCCC=C(c1ccccc1)c1ccccc1`, with 64 to 66 °C; and `Cc1cc(O)c(SCCc2ccccc2)c(=O)o1`, with 100 to 101 °C; and `O=C(c1ccccc1)c1cnn2c(-c3cccc(N4CCCCC4=O)c3)ccnc12`, with 160 to 162 °C.
On to `Cn1c(COc2ccc(CC3SC(=O)NC3=O)cc2)nc2ccc(Oc3ccc(NC(=O)c4ccc(F)cc4F)cc3)cc21` (stereo not given), for which the melting point is 172 to 174 °C.
With `O=S1(=O)c2cccc3cccc(c23)N1CCCN1CC=C(c2c[nH]c3ccccc23)CC1`, the melting point stood at 226 °C.
In turn, `COc1cc(C(=O)Nc2cc(Oc3ccc4nc(NC(=O)C5CC5)cn4n3)ccc2C)n(C)n1` showed a melting point of 224 °C.
Compound `CCC(=O)N(C)c1cccc(-c2ccc3nncn3n2)c1` showed a melting point of 146 to 150 °C.
With `CCCOc1ccc(S)cc1C(N)=O`, the melting point was in the range of 108 to 111 °C.
Turning to `CCCCCCCCCCCCCCCCc1cc(S)c(Sc2nnc(SCC(=O)O)s2)cc1O`, the melting point was 71 to 76 °C.
Then `Fc1ccc(-c2ncn(CCCCl)c2-c2ccncc2)cc1`, with 139 to 140 °C; and `CCOC(=O)CSc1nc2ccc(N)cc2s1`, with 87 to 89 °C.
For the compound `COc1ccc(C(=O)c2ccc(OCc3coc(-c4ccccc4)n3)cc2)c(OC(C)(C)C(=O)O)c1`, the melting point was in the range of 165 to 167 °C.
Compound `Nc1ccc2ccc(-c3ccc(F)cc3)nc2n1` came in with a melting point of 175 °C.
`CCCC(=O)N1CCc2cc(S(=O)(=O)N3CCN(c4cccc(Cl)c4)CC3)ccc21` showed a melting point of 267 to 268 °C.
In turn, `O=C(COc1cccnc1)C12CC3CC(CC(C3)C1)C2` had a melting point of 73 to 75 °C.
`CCNC(=O)c1ccc(N2CCN(Cc3cc(C)c4c(c3)NC(=O)C(C)O4)CC2)c(F)c1` (stereo not given): the melting point lay within 242 to 245 °C.
Then `CC(C)(C)NCC(O)COc1ccc(C(N)=O)cc1I` (stereo not given), with 111 to 114 °C; and `Oc1cccc2[nH]c(-c3ccccc3)cc12`, with 120 to 123 °C.
Regarding `CC1(C)CCC(C)(C)c2cc3c(cc21)CCc1c(-c2ccc(C(=O)O)cc2)ccnc1-3`, the melting point lay within 286 to 289 °C.
`CC(C)(C)c1cc(-c2nnc(NC(N)=S)s2)cc(C(C)(C)C)c1O` displayed a melting point above 80 °C.
As to `CCC1(O)CC(=O)OCc2c1ccnc2OC` (stereo not given), the melting point is 97 to 98 °C.
Then `CCN(CC)c1ccc(N=Nc2ccc(C#N)c(C#N)c2)c(NC(C)=O)c1`, with 181 to 182 °C.
The compound `CCc1cc2c(=O)[nH]c(CO)nc2s1` displayed a melting point of 202 °C.
As for `COc1ccc2c(c1)CC(=O)C2`, the melting point is 74 to 78 °C.
Then `C[Si](C)(C)c1ccc(C(=O)Nc2nnn[nH]2)o1`, with 247 to 248 °C; and `CCC(=O)CCCCCCC(=O)c1ccc(OCc2ccccc2)c(OCc2ccccc2)c1`, with 67 to 68 °C; and `CNN(NC)C(=O)Nc1cccc2c1C(=O)c1c-2n[nH]c1-c1ccsc1`, with 202 °C.
Take `Cc1c(CC(=O)O)c2cc(OCc3csc(-c4ccc(Cl)cc4)n3)ccc2n1Cc1ccc(Cl)cc1`: the melting point fell in the range of 145 to 146 °C.
Take `COc1cc(Nc2c(C#N)cnc3ccc(-c4csc(CN5CCOCC5)c4)cc23)c(Cl)cc1Cl`: the melting point fell in the range of 145 to 147 °C.
Then `COc1cc2c(cc1Cl)C(=O)Cc1ccc(F)cc1S2`, with 195 to 197 °C; and `COc1ccc(-c2nc(S(C)(=O)=O)ncc2C(=O)N2CCOCC2)cc1OC`, with 77 °C.
As to `Cn1c(=O)oc2cc3c(cc21)C1(CO3)C(=O)N(CC2CCCO2)c2ccccc21` (stereo not given), the melting point was above 250 °C.
Then `CS(=O)c1ccccc1S(=O)(=O)c1ccc(NC(=O)C(C)(O)C(F)(F)F)c(Cl)c1` (stereo not given), with 118 to 120 °C; and `COc1cc(C=NC2CCCCC2)c([N+](=O)[O-])cc1OC`, with 160 to 161 °C; and `COC(=O)c1cc(=O)c2c(C)cc(C)cc2[nH]1`, with 227 to 229 °C.
In turn, `CC(C)c1ccccc1Nc1nc(N)nc2c1-c1ccccc1C2` registered a melting point of 193 to 195 °C.
The compound `CC(C)c1cc2sccc2c2c3c([nH]c12)CCNC3` displayed a melting point of 197 to 199 °C.
Then `O=Cc1ccc(OCc2ccccc2)c(OC2CCCC2)c1`, with 55 to 56 °C; and `NCC(c1cccc(OCc2ccccc2)c1)C1CCCCC1O` (mixture of isomers), with 139 to 141 °C.
Compound `N#Cc1ccc(-c2ccc(OCC(COc3ccccc3)N(O)C=O)cc2)cc1` (stereo not given) gave a melting point of 133 to 135 °C.
Then `OCc1ccccc1NCc1c(O)ccc2c1CCCO2`, with 151 to 153 °C.
`CC1(C)Cc2sccc2C(NC(N)=O)C1` (stereo not given) displayed a melting point of 174 to 178 °C.
`N#CN=C(NCCSCc1ccccn1)NCCSCc1ccccn1` came in with a melting point of 78 to 80 °C.
In turn, `COc1nc(C(F)(F)F)c(F)c(=O)n1-c1cc(C(=O)O)c(Cl)cc1F` had a melting point of 199 to 201 °C.
Compound `Nn1c(-c2ccccc2)nc2cc(C(F)(F)F)ccc21` gave a melting point of 200 to 203 °C.
Then `C=CCOC(=O)c1cccc(C)c1OS(=O)(=O)NC(=O)Nc1nc(C)cc(OC)n1`, with 127 to 128 °C.
